Source: patent US20080227809A1, “Arylalkylamine Vanadium (V) Salts for the Treatment and/or Prevention of Diabetes Mellitus” (GENMEDICA THERAPEUTICS SL, priority 2004, published 2008)

Key:
[1] = tested on: isolated rat adipocytes; test: glucose transport (2-deoxyglucose uptake) in isolated rat adipocytes; assay type: cell-based; conditions: for stimulation of glucose transport at low concentration compared with A and B vanadium salts: 10 μM; for stimulation of glucose transport at low concentration compared with A and B vanadium salts / maximal stimulatory effect on glucose transport, compounds compared: vanadium salts; for maximal stimulatory effect on glucose transport, compounds compared: FIG. 6B; for stimulatory effect on glucose transport in the presence of semicarbazide: 1 mM semicarbazide (SSAO inhibitor)
Experimental: In order to determine whether salts formed by vanadate and benzylamine could produce an insulin mimetic effect, the effect of increasing concentrations of hexaquis(benzylammonium) decavanadate on glucose transport activity in isolated rat adipocytes was tested. Hexaquis(benzylammonium) decavanadate induced the stimulation of glucose transport which was perceptible from concentrations of 0.5 μM, with a maximal effect observed 2.5 μM and the semimaximal effect above 1 μM. […] The maximum effect provoked by incubation with hexaquis(benzylammonium) decavanadate was greater than that produced by the presence of benzylamine and vanadate in combination (FIG. 1). […] In similar assays, the activity of hexaquis(benzylammonium) decavanadate, pentaquis(benzylammonium) decavanadate and tetraquis(benzylammonium) decavanadate on glucose transport activity in isolated rat adipocytes were analyzed.
To determine the possible insulin mimetic effect of certain vanadium arylalkylamines, the capacity of these compounds to enhance glucose transport in isolated rat adipocytes was tested. Adipose cells from Wistar rats were incubated for 45 minutes in basal conditions (Basal) or in the presence of 100 nM insulin (Ins), and different concentrations of. hexaquis(benzylammonium) decavanadate (B6V10) in the absence or in the presence of 1 mM semicarbazide (SCZ). Subsequently, 2-DG transport was measured over a 5 min. interval.
The effects of the three tested compounds (B6V10, B5V10 and B4V10) were compared. Adipose cells from Wistar rats were incubated for 45 minutes in basal conditions (Basal) or in the presence of 100 nM insulin (Ins), and different concentrations of. decavanadate (V10), hexaquis(benzylammonium) decavanadate (B6V10), pentaquis(benzylammonium) decavanadate (B5V10) or tetraquis(benzylammonium) decavanadate (B4V10) in the absence or in the presence of 1 mM semicarbazide (SCZ). 2-DG transport was measured over 5 min. intervals. […] The stimulation of all three compounds on glucose transport was blocked in the presence of semicarbazide.
In additional experiments, compounds shown in FIG. 6A (named 2-(4-fluoro-phenyl)-ethylamine (compound A), 3-phenyl-propylamine (compound B), 4-fluoro-benzylamine (compound C) and 4-phenyl-butylamine (compound D)) were assessed using the experimental methods set forth above for the capacity to stimulate 2-DG uptake in isolated rat adipocytes. Adipose cells from Wistar rats were incubated for 45 minutes in basal conditions (Basal) or in the presence of 100 nM insulin (Ins), and different concentrations of vanadium salts of 2-(4-fluoro-phenyl)-ethylamine (compound A), 3-phenyl-propylamine (compound B), 4-fluoro-benzylamine (compound C) and 4-phenyl-butylamine (compound D). 2-DG transport was measured over 5 min.
(§1) The effects of incubation with semicarbazide or phosphatidylinositol 3-kinase inhibitors were also investigated. Adipose cells were incubated with B6V10 (25 μM, 45 min) in the absence or presence of wortmannin (2 μM, 45 min), LY294002 (10 μM, 45 min) or semicarbazide (1 mM, 45 min) and thereafter 2-deoxyglucose uptake was determined during 5 min. Activation of protein kinase B phosphorylation induced by B6V10 was blocked by semicarbazide and it was not observed by decavanadate. In addition, phosphatidylinositol 3-kinase inhibitors wortmannin and LY294002 blocked B6V10-induced glucose transport (FIG. 7E).

[2] = tested on: streptozotocin-induced diabetic rats; test: chronic subcutaneous (osmotic minipump) treatment, glycemia of streptozotocin (45 mg/kg) diabetic rats; assay type: in vivo, rat; conditions: 2.5 μmol/kg/day subcutaneous by osmotic minipumps, about two weeks
Experimental: Insulin concentrations were determined before and after treatment.
The effect of chronic administration of hexaquis(benzylammonium) decavanadate on glycemia from diabetic rats was determined. Thus, diabetes was induced in rats by intravenous administration of streptozotocin, which destroys the β-pancreatic cells that produce insulin.
(§2) Chronic in vivo efficacy of B6V10 was evaluated in streptozotocin-induced diabetic rats and in db/db mice. Streptozotocin-induced (45 mg/kg) diabetic rats were subcutaneously treated with hexaquis(benzylammonium) decavanadate (2.5 μmol/kg) (B6V10, solid squares, FIG. 8A) or with decavanadate (2.5 μmol/kg) (V10, open circles, FIG. 8A) delivered subcutaneously by osmotic minipumps implanted in the dorsal region. Diabetic rats were also sham-operated (untreated, solid diamonds, FIG. 8A). […] These experiments were repeated using an oral administration protocol. Streptozotocin-induced (45 mg/kg) diabetic rats were orally treated with hexaquis(benzylammonium) decavanadate (5 μmol/kg from day 0 to day 7 and 10 μmol/kg/day from day 7 to day 17) (B6V10, solid squares, FIG. 8B) or received decavanadate (10 μmol/kg) (V10, open circles, FIG. 8B). Nondiabetic rats were also untreated (solid triangles, FIG. 8B).

[3] = tested on: streptozotocin-induced diabetic rats; test: chronic oral treatment, glycemia of streptozotocin (45 mg/kg) diabetic rats; assay type: in vivo, rat; conditions: for effect on glycemia: daily oral administration, 17 days
Experimental: The effect of the oral administration of hexaquis(benzylammonium) decavanadate on glycemia from diabetic rats was also studied. Diabetes was induced in rats by intravenous administration of streptozotocin, and subsequently, a hexaquis(benzylammonium) decavanadate or sodium decavanadate unique dose was administered to the rats. […] After seven days of treatment, the dose was increased at 10 μmol/kg/day which was maintained for an additional ten days. […] Thus, glycemia in sodium decavanadate treated rats was approximately 450 mg/dl and glycemia of hexaquis(benzylammonium) decavanadate treated rats was approximately 250 mg/dl.
as §2

[4] = tested on: protein kinase B; test: protein kinase B phosphorylation in isolated rat adipocytes; assay type: cell-based; conditions: 25 μM
Experimental: Isolated fat cells were disrupted for total membrane preparation by hypo-osmotic lysis in a 20 mM HES buffer and an antiprotease and antiphosphatase cocktail as reported by Abella et al. (2003, Diabetes 52: 1004-1013). Protein concentrations were determined by the Bradford method (Bradford, 1976, Anal. Biochem. 72: 248-254) with gamma-globulin as protein concentration standard. Immunoprecipitation and immunoblot assays were performed as previously described by Abella et al. (2004, Id.) with the use of a monoclonal antiphosphotyrosine antibody for the immunoprecipitation and an anti-insulin receptor antibody for immunobloting, respectively. SDS-polyacrylamide gel electrophoresis was performed on membrane proteins following conventional procedures. Proteins were transferred to Immobilon and immunoblotting was performed as reported by Castello et al. (1994, J. Biol. Chem. 269: 5905-5912).
The mechanism of action of B6V10 was investigated in isolated rat adipocytes. Adipose cells from Wistar rats were incubated for different times in the presence of 25 μM hexaquis(benzylammonium) decavanadate (B6V10). Cells were also incubated in the presence of insulin (100 nM, 45 min), decavanadate (25 μM, 45 min) or semicarbazide (1 mM, 45 min). Subsequently, 2-deoxyglucose uptake (results shown in FIG. 7A), tyrosine phosphorylation of insulin receptor (FIG. 7B), phospho-Thr^308-protein kinase B (FIG. 7C) and phospho-Ser^473-protein kinase B (FIG. 7D) was measured. […] The phosphorylation of protein kinase B induced by B6V10 was parallel to activation of glucose transport (FIGS. 7C and 7D).
as §1

[5] = tested on: streptozotocin-induced diabetic rats with undetectable circulating insulin; conditions: 2.5 μmol/kg subcutaneous by osmotic minipumps, streptozotocin 100 mg/kg
Experimental: Male Wistar rats weighting 180-220 g were purchased from Harlan (Interfauna Ibèrica S.A., Spain). Diabetes was induced by a single intraperitoneal injection of a freshly prepared solution of streptozotocin (in some studies the dose was 45 mg/kg body weight and in some others 100 mg/kg body weight dissolved in 50 mM citrate buffer, pH 4.5). Only diabetic animals with glycemia above 300 mg/dl were used. The animals were housed in animal quarters at 22° C. with a 12 h light/12 h dark cycle and were fed ad libitum. All procedures used were approved by the animal ethical committee of the University of Barcelona, Spain.
Osmotic minipumps delivering B6V10 (2.5 μmol/kg body wt/day) or decavanadate (2.5 μmol/kg body wt/day) were implanted subcutaneously in diabetic rats anaesthetised by ketamine hydrochloride (95 mg/kg) and xylasine (10 mg/kg). […] Glycemia was measured on arterio-venous blood collected from the tail vessels at 09:00 am for two weeks, before the administration of vanadate. Insulin concentrations were determined before and after treatment. In another set of experiments, B6V10 was orally administered at a single dose of 5 μmol/kg/day during the first week and 10 μmol/kg/day during 2 additional weeks by gastric gavage. A control group received the corresponding decavanadate salt in the absence of benzylamine. At the end of the treatment, animals were sacrificed and the liver, fat pad, heart and lung were kept at −80° C. and the plasma at −20° C. until their use for in vitro analysis.
In glucose tolerance tests and in chronic treatments, circulating glucose concentrations were determined by a rapid glucose analyser (Accutrend® Sensor Comfort, Roche, Basel. Switzerland). Plasma insulin (IRI) concentration was determined by ELISA method using a kit obtained from Crystal Chem. Inc. (Downers Grove, Ill.).
To this end, rats were made diabetic by the injection of a large dose of streptozotocin (100 mg/kg) that eliminates β-pancreatic insulin content.

[6] = isolated rat adipocytes, 45 min incubation

## NCc1ccc(F)cc1 [compound C, 4-fluoro-benzylamine]
[1]
  stimulation of glucose transport at low concentration compared with A and B vanadium salts: higher
  maximal stimulatory effect on glucose transport, compounds compared: similar
[1]; [6]
  stimulation of glucose transport: markedly stimulated

## tetraquis(benzylammonium) decavanadate [Example B4V10]
[1]
  stimulatory effect on glucose transport in the presence of semicarbazide: blocked
[1]; listed as tetraquis(benzylammonium) decavanadate
  stimulatory effect on glucose transport in the presence of semicarbazide: inhibited
[1]; [6]
  stimulation of glucose transport: pronounced stimulation

## NCCc1ccc(F)cc1 [compound A, 2-(4-fluoro-phenyl)-ethylamine]
[1]; [6]
  stimulation of glucose transport: markedly stimulated

## NCCCc1ccccc1 [compound B, 3-phenyl-propylamine]
[1]; [6]
  stimulation of glucose transport: markedly stimulated

## sodium decavanadate [reference compound]
[1]; alone at 5 to 50 μM
  stimulation of glucose transport: did not stimulate glucose transport
[2]
  effect on glycemia: did not modify substantially its glycemia
[2]; listed as V10
  effect on glycemia: did not alter glycemia
[3]
  effect on glycemia: not affected substantially
[3]; listed as V10
  effect on glycemia: did not alter glycemia
[3]; oral, after dosage increase to 10 μmol/kg/day
  glycemia: approximately 450 mg/dl
[4]
  protein kinase B phosphorylation: not observed
[5]
  effect on glycemia: did not show any change in circulating glucose

## pentaquis(benzylammonium) decavanadate [Example B5V10]
[1]
  stimulatory effect on glucose transport in the presence of semicarbazide: blocked
[1]; listed as pentaquis(benzylammonium) decavanadate
  stimulatory effect on glucose transport in the presence of semicarbazide: inhibited
[1]; [6]
  stimulation of glucose transport: pronounced stimulation

## NCCCCc1ccccc1 [compound D, 4-phenyl-butylamine]
[1]
  stimulation of glucose transport at low concentration compared with A and B vanadium salts: higher
  maximal stimulatory effect on glucose transport, compounds compared: similar
[1]; [6]
  stimulation of glucose transport: markedly stimulated
